Converted amounts (≈) assume the structure as drawn.
Experiments:
Bulbils of yam [1] = experiment: Germination (sprouting) of yam bulbils awakened from dormancy (Example 6, Table 3); assay type: in vivo, Dioscorea batatas Decne.; settings: 300 μg/ml; 23° C., light of 1800 luxes, 2 weeks; untreated control 80
Method: Bulbils (fleshy buds for breeding formed on stems) of yam (Dioscorea batatas Decne.) were stored at a low temperature of 5° C. for 3 months and awakened from hibernation. These fleshy buds were treated with the agricultural chemical of this invention in the following manner to lead them to hibernation again.
Every active ingredient compound of this invention shown in the following Table 3 was dissolved emulsified in distilled water containing 1% of dimethylformamide and 0.05% of Tween 20. 25 ml of the resulting liquor was poured into a culture dish of 9 cm diameter in which absorbent cotton was spread, and 30 of bulbis which had been subjected to the above low temperature treatment and awakened from dormancy were sown on the dish and they were allowed to sprout at 23° C. under light of 1800 luxes for 2 weeks.

oats coleoptile = experiment: Growth inhibition in oats coleoptile sections (Example 4, Table 1); set-up: species or system Avena sativa L.; settings: Avena sativa; 5 mm sections, 25° C., 20 hours, dark; read-out: Growth Inhibition in oats coleoptile (concentration giving 50% inhibition)
Method: A compound illustrated in Table 1 was dissolved in dimethylformamide and the solution was diluted to desired concentrations with water containing 2% of sucrose. In control test dimethylformamide was applied in the same amount as that of treated groups. This solvent gives no phytotoxicity to plants to be tested if the content in water is 1% or less. The prepared liquors were poured into culture dishes of 3 cm diameter, the amount of the medium poured into one dish being 2 ml. Sections of 5 mm in length cut from a coleoptiles of oats (Avena sativa L.) which have been grown in the dark were floated on the test media in the culture dishes and cultured at 25° C. for 20 hours in the dark to determine the growth-inhibition degrees.
In the control group, the coleoptile elongated by about 5 mm during the experiment.

Seedings of lettuce = experiment: Growth inhibition of lettuce seedling stems (hypocotyls) (Example 10, Table 7); assay type: in vivo, Lactuca sativa L.; settings: Lactuca sativa, 72 h, stem (hypocotyl) length, light place, 23° C., 3 days, read-out: Growth Inhibition Ratio
Method: 4-Hydroxy-2,6,7-trimethoxyphenanthrene or 3,3'-dihydroxy-5-methoxybibenzyl was dissolved in acetone, and the resulting solution was placed in culture dishes in which 2 layers of filter paper were spread so as to give required amounts of the test compound. After the acetone was removed by evaporation, Hoagland's nutrient solution containing 0.05% of Tween 20 was poured into the culture dishes. Seedings of lettuce (Lactuca sativa L.), which had been germinated in a different place, were transplanted to the culture dishes and cultivation was carried out in a light place at 23° C. for 3 days. Then, the lengths of the stems (hypocotyls) were measured to determined the growth inhibition ratio.

bulbils of yam [2] = experiment: Sprouting of yam bulbils in dark or light (Example 7, Table 4); assay type: in vivo, Discorea batatas Decne.; settings: 23° C., 20 days
Method: 4-Hydroxy-2,6,7-trimethoxyphenanthrene and 3,3'-dihydroxy-5-methoxybibenzylwere respectively dissolved at various concentrations in water containing 0.05% of Tween 20, and 30 ml each of the resulting solutions were poured into culture dishes of 9 cm in diameter containing 1 g of absorbent cotton.
Thirty bulbils of yam (Discorea batatas Decne.) which had been awakened from dormancy were planted in each of the so arranged culture dishes, and the germination test was carried out at 23° C. either in the dark or in the light. […]

oats coleoptiles = experiment: Growth inhibition of oats coleoptile pieces with indoleacetic acid (Example 9, Table 6); set-up: species or system Avena sativa L.; settings: Avena sativa, 0.1 mg/l indoleacetic acid, 25° C., 18 hours, read-out: Growth Inhibition ratio
Method: Oats (Avena sativa L.) were allowed to germinate under a weak red light at 25° C. and 3 days after germination sections of […] in length were cut from coleoptiles about 25 mm in length. 4-Hydroxy-2,6,7-trimethoxyphenanthrene or 3,3-dihydroxy-5-methoxybibenzyl was dissolved in a culture medium comprising 0.1 mg/l of indoleacetic acid, 0.05% of Tween 20 and 2% of sucrose, the balance being water. Ten of the above cut-out coleoptile pieces were flated on the resulting culture medium and cultivation was conducted at 25° C. for 18 hours to examine the growth state and the results shown in Table 6 were obtained.

Solubility = assay type: physicochemical
lettuce seeds = experiment: Inhibition of germination of lettuce seeds, 50% inhibition (Example 5, Table 2); assay type: in vivo, Lactuca sativa L.; settings: Lactuca sativa, 48 h; 23° C., dark, 2 days; 1% dimethylformamide; read-out: Inhibition of Germination of Lettuce Seeds, Concentration Giving 50% Inhibition
Method: Every compound shown in Table 1 was respectively dissolved at various concentrations in distilled water containing 1% of dimethylformamide, and 3 ml each of the resulting solutions was poured into a culture dish of 6 cm diameter in which 2 filter papers were spread. About 100 seeds (non-dormant ware head seeds) of lettuce (Lactuca sativa L.) were shown in each dish, and they were allowed to stand at 23° C. in the dark for 2 days. Germination percentages were determined and plotted against the concentrations of the compound tested. From the graphs obtained the concentration to give 50% inhibition was determined. The definition of inhibition rate is given in the following formula: [formula] Usually the germination percentage of the untreated control lot was about 95%.

seeds of a lettuce = experiment: Germination ratio of lettuce seeds (Example 8, Table 5); assay type: in vivo, Lactuca sativa L.; settings: for Germination Ratio: 23° C., 2 days, untreated control 90
Method: 4-Hydroxy-2,6,7-trimethoxyphenanthrene and 3,3'-dihydroxy-5-methoxybibenzylwere respectively dissolved in water containing 0.05% of Tween 20 and 1% of dimethylformamide, and each of the resulting solution was poured into a culture dish, 6 cm in diameter, in which 2 layers of filter paper were spread to form a germination bed. 100 seeds of a lettuce (Lactuca sativa L.) were sown on the germination bed and cultivation was conducted for 2 days at 23° C. […] [formula]

COc1cc(O)cc(CCc2cccc(O)c2)c1 [Compound 8, 3,3'-dihydroxy-5-methoxybibenzyl]
Germination Ratio (Bulbils of yam [1]): 50%
IC50 (oats coleoptile): 100 µg/mL (≈ 409 µM)
inhibition at 30 µg/mL (Seedings of lettuce; 30 mg/l): 21%
inhibition at 100 µg/mL (Seedings of lettuce; 100 mg/l): 48%
inhibition at 300 µg/mL (Seedings of lettuce; 300 mg/l): 86%
Sprouting Ratio (bulbils of yam [2]; 100 mg/l, dark place, untreated control 56): 56%
Sprouting Ratio (bulbils of yam [2]; 100 mg/l, light place, untreated control 44): 23%
Sprouting Ratio (bulbils of yam [2]; 300 mg/l, dark place, untreated control 56): 22%
Sprouting Ratio (bulbils of yam [2]; 300 mg/l, light place, untreated control 44): 18%
Sprouting Ratio (bulbils of yam [2]; 1000 mg/l, dark place, untreated control 56): 14%
inhibition at 30 µg/mL (oats coleoptiles; 30 mg/l): 39%
inhibition at 100 µg/mL (oats coleoptiles; 100 mg/l): 76%
inhibition at 300 µg/mL (oats coleoptiles; 300 mg/l): 84%
Solubility in ordinary solvents (Solubility; ethanol, acetone, ethyl acetate and ether): Soluble
Solubility in hexane (Solubility; hexane): insoluble
Solubility in water (Solubility; water): difficultly soluble
IC50 (lettuce seeds): 80 µg/mL (≈ 327 µM)
Germination Ratio (seeds of a lettuce; 30 mg/l): 52%
Germination Ratio (seeds of a lettuce; 100 mg/l): 26%
Germination Ratio (seeds of a lettuce; 300 mg/l): 0%
Blight of germination-inhibited seeds (seeds of a lettuce; in vivo): not blighted
Germination after washing and transplanting (seeds of a lettuce; washed with water, transplanted on culture dish free of compound): complete germination

Reference: patent US4022842A, “Bibenzyl compounds” (Rikagaku Kenkyusho, priority 1972, dated 1977)
